Results: PubChem BioAssay (NCI)
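Here, GI50 denotes the concentration required for 50% inhibition of growth. TGI is the concentration that stops growth completely.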

What was measured:
Assay in all cases: DTP human tumour cell line panel, 384-well format
M14 melanoma = test system: M14 melanoma
NCI-H322M lung = test system: NCI-H322M lung
HOP-62 NSCLC = test system: HOP-62 NSCLC
SNB-75 CNS = test system: SNB-75 CNS
NCI-H226 lung = test system: NCI-H226 lung
OVCAR-4 ovarian = test system: OVCAR-4 ovarian
NCI-H522 lung = test system: NCI-H522 lung
786-0 renal = test system: 786-0 renal
SF-295 CNS = test system: SF-295 CNS
SK-MEL-5 melanoma = test system: SK-MEL-5 melanoma
COLO 205 colon = test system: COLO 205 colon
RXF 393 renal = test system: RXF 393 renal
UO-31 renal = test system: UO-31 renal
SF-268 CNS = test system: SF-268 CNS
SK-OV-3 ovarian = test system: SK-OV-3 ovarian
CAKI-1 renal = test system: CAKI-1 renal
A498 renal = test system: A498 renal
OVCAR-8 ovarian = test system: OVCAR-8 ovarian
KM12 colon = test system: KM12 colon
HL-60(TB) leukemia = test system: HL-60(TB) leukemia
UACC-62 melanoma = test system: UACC-62 melanoma
UACC-257 melanoma = test system: UACC-257 melanoma
SR leukemia = test system: SR leukemia
SNB-19 CNS = test system: SNB-19 CNS
HOP-92 NSCLC = test system: HOP-92 NSCLC
MCF7 breast = test system: MCF7 breast
SW-620 colon = test system: SW-620 colon
PC-3 prostate = test system: PC-3 prostate
SF-539 CNS = test system: SF-539 CNS
RPMI-8226 leukemia = test system: RPMI-8226 leukemia
EKVX NSCLC = test system: EKVX NSCLC
TK-10 renal = test system: TK-10 renal
SN12C renal = test system: SN12C renal
A549 NSCLC = test system: A549 NSCLC
CCRF-CEM leukemia = test system: CCRF-CEM leukemia
IGROV1 ovarian = test system: IGROV1 ovarian
T-47D breast = test system: T-47D breast
OVCAR-5 ovarian = test system: OVCAR-5 ovarian
NCI-H23 lung = test system: NCI-H23 lung
MDA-MB-231 breast = test system: MDA-MB-231 breast
MDA-MB-435 melanoma = test system: MDA-MB-435 melanoma
NCI-H460 NSCLC = test system: NCI-H460 NSCLC
SK-MEL-28 melanoma = test system: SK-MEL-28 melanoma
MALME-3M melanoma = test system: MALME-3M melanoma
HS 578T breast = test system: HS 578T breast
DU-145 prostate = test system: DU-145 prostate
U251 glioblastoma = test system: U251 glioblastoma
ACHN renal = test system: ACHN renal
HCT-116 colon = test system: HCT-116 colon
HCT-15 colon = test system: HCT-15 colon
BT-549 breast = test system: BT-549 breast
OVCAR-3 ovarian = test system: OVCAR-3 ovarian
MOLT-4 leukemia = test system: MOLT-4 leukemia
HT29 colon = test system: HT29 colon
LOX IMVI melanoma = test system: LOX IMVI melanoma
MDA-MB-468 breast = test system: MDA-MB-468 breast
HCC-2998 colon = test system: HCC-2998 colon
K-562 leukemia = test system: K-562 leukemia
NCI/ADR-RES ovarian = test system: NCI/ADR-RES ovarian

## COc1cc2c(cc1O)CCN[C@]21CS[C@@H]2c3c(OC(C)=O)c(C)c4c(c3[C@H](COC1=O)N1[C@@H]2[C@H]2c3c(cc(C)c(OC)c3O)C[C@@H]([C@@H]1O)N2C)OCO4
M14 melanoma
  GI50: 0.0865 nM
  TGI: 0.000237 µM
NCI-H322M lung
  GI50: 0.481 nM
  TGI: 0.00103 µM
HOP-62 NSCLC
  GI50: 0.0657 nM
  TGI: 0.177 nM
SNB-75 CNS
  GI50: 0.0952 nM
  TGI: 0.329 nM
NCI-H226 lung
  GI50: 0.0901 nM
  TGI: 0.359 nM
OVCAR-4 ovarian
  GI50: 2.77 nM
  TGI: 5.98 nM
NCI-H522 lung
  GI50: 0.11 nM
  TGI: 0.000447 µM
786-0 renal
  GI50: 0.0975 nM
  TGI: 0.000568 µM
SF-295 CNS
  GI50: 0.0877 nM
  TGI: 0.299 nM
SK-MEL-5 melanoma
  GI50: 0.0992 nM
  TGI: 0.345 nM
COLO 205 colon
  GI50: 0.433 nM
  TGI: 0.882 nM
RXF 393 renal
  GI50: 0.0747 nM
  TGI: 0.000209 µM
UO-31 renal
  GI50: 0.514 nM
  TGI: 0.000962 µM
SF-268 CNS
  GI50: 0.121 nM
  TGI: 0.000542 µM
SK-OV-3 ovarian
  GI50: 2.22 nM
  TGI: 7.34 nM
CAKI-1 renal
  GI50: 0.497 nM
  TGI: 4.25 nM
A498 renal
  GI50: 1.18 nM
  TGI: 2.61 nM
OVCAR-8 ovarian
  GI50: 0.169 nM
  TGI: 0.000555 µM
KM12 colon
  GI50: 1.4 nM
  TGI: 0.00358 µM
HL-60(TB) leukemia
  GI50: 0.0567 nM
  TGI: 0.000105 µM
UACC-62 melanoma
  GI50: 0.099 nM
  TGI: 0.371 nM
UACC-257 melanoma
  GI50: 0.546 nM
  TGI: 0.987 nM
SR leukemia
  GI50: 0.0313 nM
  TGI: 0.0728 nM
SNB-19 CNS
  GI50: 0.84 nM
HOP-92 NSCLC
  GI50: 0.0211 nM
  TGI: 0.0954 nM
MCF7 breast
  GI50: 0.447 nM
  TGI: 5.54 nM
SW-620 colon
  GI50: 1.61 nM
  TGI: 0.00349 µM
PC-3 prostate
  GI50: 0.396 nM
  TGI: 0.00154 µM
SF-539 CNS
  GI50: 0.0765 nM
  TGI: 0.000185 µM
RPMI-8226 leukemia
  GI50: 0.0686 nM
  TGI: 0.153 nM
EKVX NSCLC
  GI50: 0.583 nM
  TGI: 1.28 nM
TK-10 renal
  GI50: 2.48 nM
  TGI: 6 nM
SN12C renal
  GI50: 0.133 nM
  TGI: 0.000715 µM
A549 NSCLC
  GI50: 0.868 nM
  TGI: 0.00237 µM
CCRF-CEM leukemia
  GI50: 0.0203 nM
  TGI: 0.0389 nM
IGROV1 ovarian
  GI50: 0.885 nM
  TGI: 8.12 nM
T-47D breast
  GI50: 0.482 nM
  TGI: 2.33 nM
OVCAR-5 ovarian
  GI50: 0.983 nM
  TGI: 9.36 nM
NCI-H23 lung
  GI50: 0.0949 nM
  TGI: 0.000309 µM
MDA-MB-231 breast
  GI50: 1 nM
  TGI: 0.00256 µM
MDA-MB-435 melanoma
  GI50: 0.614 nM
  TGI: 1.09 nM
NCI-H460 NSCLC
  GI50: 0.112 nM
  TGI: 0.000454 µM
SK-MEL-28 melanoma
  GI50: 0.459 nM
  TGI: 0.888 nM
MALME-3M melanoma
  GI50: 0.136 nM
  TGI: 0.37 nM
HS 578T breast
  GI50: 0.175 nM
  TGI: 0.555 nM
DU-145 prostate
  GI50: 0.31 nM
  TGI: 0.00084 µM
U251 glioblastoma
  GI50: 0.17 nM
  TGI: 0.000842 µM
ACHN renal
  GI50: 0.685 nM
  TGI: 0.00224 µM
HCT-116 colon
  GI50: 0.653 nM
HCT-15 colon
  GI50: 0.595 nM
  TGI: 0.00524 µM
BT-549 breast
  GI50: 0.0545 nM
  TGI: 0.124 nM
OVCAR-3 ovarian
  GI50: 0.227 nM
  TGI: 0.000698 µM
MOLT-4 leukemia
  GI50: 0.0228 nM
  TGI: 0.0638 nM
HT29 colon
  GI50: 0.117 nM
  TGI: 0.000245 µM
LOX IMVI melanoma
  GI50: 0.0744 nM
  TGI: 0.234 nM
MDA-MB-468 breast
  GI50: 0.0656 nM
  TGI: 0.147 nM

## COc1ccc(-c2ccc3c(N4CCOC[C@@H]4C)nc(N4CCOC[C@@H]4C)nc3n2)cc1CO
M14 melanoma
  GI50: 19 nM
  TGI: 10.5 µM
NCI-H322M lung
  GI50: 27.6 nM
  TGI: 11.1 µM
HOP-62 NSCLC
  GI50: 29.2 nM
  TGI: 1880 nM
SNB-75 CNS
  GI50: 14.3 nM
  TGI: 207 nM
NCI-H226 lung
  GI50: 17.9 nM
  TGI: 284 nM
OVCAR-4 ovarian
  GI50: 12.9 nM
  TGI: 95.3 nM
NCI-H522 lung
  GI50: 22.9 nM
  TGI: 10 µM
786-0 renal
  GI50: 42.2 nM
  TGI: 12.1 µM
SF-295 CNS
  GI50: 12.2 nM
  TGI: 87.7 nM
SK-MEL-5 melanoma
  GI50: 10.5 nM
  TGI: 89.1 nM
COLO 205 colon
  GI50: 24.4 nM
  TGI: 1350 nM
HCC-2998 colon
  GI50: 77 nM
  TGI: 14.9 µM
RXF 393 renal
  GI50: 27.3 nM
  TGI: 12 µM
UO-31 renal
  GI50: 81.8 nM
  TGI: 19 µM
SF-268 CNS
  GI50: 62.9 nM
  TGI: 12.9 µM
SK-OV-3 ovarian
  GI50: 17.6 nM
  TGI: 365 nM
CAKI-1 renal
  GI50: 31.6 nM
  TGI: 842 nM
A498 renal
  GI50: < 10 nM
  TGI: 51.9 nM
OVCAR-8 ovarian
  GI50: 46.2 nM
  TGI: 11.6 µM
KM12 colon
  GI50: 29.4 nM
  TGI: 11.4 µM
HL-60(TB) leukemia
  GI50: 322 nM
  TGI: 12.8 µM
K-562 leukemia
  GI50: 56.3 nM
  TGI: 13.2 µM
UACC-62 melanoma
  GI50: 18.9 nM
  TGI: 208 nM
UACC-257 melanoma
  GI50: 42.9 nM
  TGI: 396 nM
SR leukemia
  GI50: 11.3 nM
  TGI: 43 nM
SNB-19 CNS
  GI50: 249 nM
  TGI: 18.5 µM
HOP-92 NSCLC
  GI50: 19.1 nM
  TGI: 340 nM
SW-620 colon
  GI50: 120 nM
  TGI: 13.3 µM
PC-3 prostate
  GI50: 16.1 nM
  TGI: 10.2 µM
SF-539 CNS
  GI50: 32.2 nM
  TGI: 11 µM
RPMI-8226 leukemia
  GI50: < 10 nM
  TGI: 10 nM
EKVX NSCLC
  GI50: 23.3 nM
  TGI: 583 nM
TK-10 renal
  GI50: 93.8 nM
  TGI: 749 nM
SN12C renal
  GI50: 19 nM
  TGI: 11.1 µM
A549 NSCLC
  GI50: 20.4 nM
  TGI: 6.35 µM
CCRF-CEM leukemia
  GI50: 14.9 nM
  TGI: 1820 nM
IGROV1 ovarian
  GI50: 12.2 nM
  TGI: 56.9 nM
T-47D breast
  GI50: < 10 nM
  TGI: 23.6 nM
OVCAR-5 ovarian
  GI50: 30.2 nM
  TGI: 1900 nM
NCI-H23 lung
  GI50: 60 nM
  TGI: 14.3 µM
MDA-MB-231 breast
  GI50: 21.9 nM
  TGI: 11.1 µM
MDA-MB-435 melanoma
  GI50: 42.4 nM
  TGI: 562 nM
NCI-H460 NSCLC
  GI50: < 10 nM
  TGI: 11.9 µM
SK-MEL-28 melanoma
  GI50: 19.9 nM
  TGI: 436 nM
MALME-3M melanoma
  GI50: < 10 nM
  TGI: 34.7 nM
HS 578T breast
  GI50: 12.8 nM
  TGI: 56.3 nM
DU-145 prostate
  GI50: 40.6 nM
  TGI: 13.3 µM
U251 glioblastoma
  GI50: 87.2 nM
  TGI: 17.4 µM
ACHN renal
  GI50: 25.4 nM
  TGI: 11.5 µM
HCT-15 colon
  GI50: 23.9 nM
  TGI: 11.3 µM
BT-549 breast
  GI50: 18.2 nM
  TGI: 192 nM
OVCAR-3 ovarian
  GI50: 29.9 nM
  TGI: 11.1 µM
MOLT-4 leukemia
  GI50: 17.9 nM
  TGI: 322 nM
NCI/ADR-RES ovarian
  GI50: 102 nM
  TGI: 26.7 µM
HT29 colon
  GI50: 102 nM
  TGI: 14.7 µM
LOX IMVI melanoma
  GI50: 31.6 nM
  TGI: 294 nM
MDA-MB-468 breast
  GI50: 15.2 nM
  TGI: 56.7 nM
